Experimental data taken from ChEMBL document CHEMBL4118093, “Identification of a Hit Series of Antileishmanial Compounds through the Use of Mixture-Based Libraries” (ACS Med Chem Lett, 2017).

Legend:
Leishmania donovani [1] = experiment: Antileishmanial activity against Leishmania donovani axenic amastigotes infected in mouse J774 cells measured after 72 hrs by Draq5 staining based high content screening assay; type: functional, organism-based; conditions: J774, 72 h
[2] = Selectivity index, ratio of IC50 for mouse J774 cells to IC50 for Leishmania donovani axenic amastigotes infected in mouse J774 cells; type: toxicity, cell-based; conditions: read-out: Ratio IC50
J774 = experiment: Cytotoxicity against mouse J774 cells
Leishmania donovani [3] = experiment: Antileishmanial activity against Leishmania donovani axenic amastigotes at 5 uM after 72 hrs by Celltiter reagent based assay relative to control; type: functional
Leishmania donovani [4] = experiment: Antileishmanial activity against Leishmania donovani axenic amastigotes at 2.5 uM after 72 hrs by Celltiter reagent based assay relative to control; type: functional

Row | SMILES | IC50 (Leishmania donovani [1]) [µM] | selectivity ratio [2] | IC50 (J774) [µM] | inhibition at 5 µM (Leishmania donovani [3]) [%] | inhibition at 2.5 µM (Leishmania donovani [4]) [%]
1 | N=C1NC[C@H](CCCCN2CCNC2=N)N1 | 4.8 | 10 | 50 | – | –
2 | CCCCCCCN1C(=N)N(CCCC[C@H]2CNC(=N)N2CCCCC2CCCCC2)C[C@@H]1CC1CCCCC1 | 0.7 | 36 | 25 | 95 | 97
3 | N=C1NC[C@H](CCCCN2CCN(CCc3ccccc3)C2=N)N1 | 0.6 | 36 | 20 | – | –
4 | N=C1N(CCCC[C@H]2CNC(=N)N2CCC23CC4CC(CC(C4)C2)C3)CCN1CCc1ccc(-c2ccccc2)cc1 | 0.7 | 33 | 23 | – | –
5 | CCCCCCCN1C(=N)N(CCCC[C@H]2CNC(=N)N2)C[C@@H]1CCCC | 1.3 | 17 | 22 | – | –
6 | CC1CCCC(CCN2C(=N)NC[C@@H]2CCCCN2CCNC2=N)C1 (some centres not stated) | 1.8 | 10 | 19 | – | –
7 | N=C1NC[C@H](CCCCN2C[C@H](CC3CCCCC3)N(CCc3ccc(-c4ccccc4)cc3)C2=N)N1CCCCC1CCCCC1 | 0.3 | 69 | 20 | 95 | 70
8 | CCCC[C@H]1CNC(=N)N1CCc1ccc(-c2ccccc2)cc1 | 2.4 | 6 | 15 | – | –
9 | N=C1NCCN1CCCC[C@H]1CNC(=N)N1CCc1ccccc1 | 1.2 | 13 | 16 | – | –
10 | CC1CCCCC1CN1C(=N)NC[C@@H]1CCCCN1CCNC1=N (some centres not stated) | 5.4 | 3 | 14 | – | –
11 | CCCC[C@H]1CN(CCCC[C@H]2CNC(=N)N2CCc2cccc(C(F)(F)F)c2)C(=N)N1CCCCC1CCCCC1 | 5 | 10 | 50 | 43 | 0
12 | CCCC[C@H]1CNC(=N)N1CCc1ccccc1 | 1.1 | 23 | 25 | – | –
13 | N=C1NCCN1CCc1ccc(-c2ccccc2)cc1 | 4.8 | 3 | 15 | – | –
14 | N=C1NC[C@H](CCCCN2C[C@H](CC3CCCCC3)N(CCCCC3CCCCC3)C2=N)N1CCCCC1CCCCC1 | > 5 | < 5 | 24 | 95 | 77
15 | CCCC[C@H]1CN(CCCC[C@H]2CNC(=N)N2CCC23CC4CC(CC(C4)C2)C3)C(=N)N1 | 4.2 | 3 | 13 | – | –
16 | CCCC[C@H]1CN(CCCC[C@H]2CNC(=N)N2CCC23CC4CC(CC(C4)C2)C3)C(=N)N1CCc1ccc(-c2ccccc2)cc1 | 0.9 | 25 | 22 | 0 | 0
17 | CCCCCCCN1C(=N)N(CCCC[C@H]2CNC(=N)N2CCC23CC4CC(CC(C4)C2)C3)C[C@@H]1CCCC | > 5 | < 6 | 32 | 94 | 96
18 | N=C1NC[C@H](CCCCN2C[C@H](CC3CCCCC3)N(CCCCC3CCCCC3)C2=N)N1CCC12CC3CC(CC(C3)C1)C2 | > 5 | < 5 | 23 | 28 | 0
19 | CCCCCCCN1C(=N)N(CCCC[C@@H]2CNC(=N)N2CCCCC2CCCCC2)C[C@@H]1CC1CCCCC1 | 8.9 | 6 | 50 | – | –
20 | CCCC[C@H]1CN(CCCC[C@H]2CNC(=N)N2CCCCC2CCCCC2)C(=N)N1CCCCC1CCCCC1 | > 5 | < 3 | 15 | 99 | 71
21 | N=C1NC[C@H](CCCCN2C[C@H](CC3CCCCC3)N(CCc3ccc(-c4ccccc4)cc3)C2=N)N1CCC12CC3CC(CC(C3)C1)C2 | 0.9 | 20 | 17 | 57 | 14
22 | CCCCCCCN1CCN(CCCC[C@H]2CNC(=N)N2)C1=N | 10 | 1 | 13 | – | –
23 | CCCC[C@H]1CNC(=N)N1CC1CCC(C)CC1 (some centres not stated) | 0.6 | 10 | 6 | – | –

Row | SMILES | IC50 (Leishmania donovani [1]) [µM] | selectivity ratio [2] | IC50 (J774) [µM] | inhibition at 5 µM (Leishmania donovani [3]) [%] | inhibition at 2.5 µM (Leishmania donovani [4]) [%]
24 | N=C1NC[C@H](CCCCN2C[C@@H](Cc3ccc4ccccc4c3)N(CCCCC3CCCCC3)C2=N)N1CCC12CC3CC(CC(C3)C1)C2 | 2.6 | 13 | 32 | 99 | 99
25 | CCCCCCCN1C(=N)N(CCCC[C@H]2CNC(=N)N2CCCCC2CCCCC2)C[C@@H]1CCCC | 1.3 | 12 | 16 | 98 | 68
26 | N=C1NCCN1CCCC[C@H]1CNC(=N)N1CCC12CC3CC(CC(C3)C1)C2 | 3.5 | 14 | 50 | – | –
27 | CCCC[C@H]1CN(CCCC[C@H]2CNC(=N)N2)C(=N)N1 | 5 to 10 | 5 to 10 | 50 | – | –
28 | CCCC[C@H]1CN(CCCC[C@H]2CNC(=N)N2CCc2cccc(C(F)(F)F)c2)C(=N)N1 | 3.5 | 3 | 11 | – | –
29 | Cc1ccc(CCN2C(=N)NC[C@@H]2CCCCN2CCNC2=N)cc1 | 3.9 | 6 | 22 | – | –
30 | CCCC[C@H]1CNC(=N)N1CCC12CC3CC(CC(C3)C1)C2 | 4.7 | 3 | 12 | – | –
31 | Cc1cccc(CCN2C(=N)NC[C@@H]2CCCCN2CCNC2=N)c1 | 0.9 | 56 | 50 | – | –
32 | N=C1NCCN1CCCC[C@H]1CNC(=N)N1CCCCC1CCCCC1 | 5.2 | 5 | 24 | – | –
33 | CCCCCCCN1CCN(CCCC[C@H]2CNC(=N)N2CCCCC2CCCCC2)C1=N | 3.5 | 2 | 6 | – | –
34 | CC1CCC(CN2C(=N)NC[C@@H]2CCCCN2CCNC2=N)CC1 (some centres not stated) | 4.4 | 1 | 6 | – | –
35 | Cc1ccccc1CCN1C(=N)NC[C@@H]1CCCCN1CCNC1=N | 3.5 | 14 | 50 | – | –
36 | N=C1NCCN1CCc1ccccc1 | 10 | 1 | 8 | – | –
37 | N=C1NCCN1CCCC[C@H]1CNC(=N)N1CCc1cccc(C(F)(F)F)c1 | 0.9 | 9 | 7 | – | –
38 | CCCCCCCN1CCN(CCCC[C@H]2CNC(=N)N2CCc2cccc(C(F)(F)F)c2)C1=N | 2.5 | 4 | 9 | – | –
39 | CCCC[C@H]1CN(CCCC[C@H]2CNC(=N)N2)C(=N)N1CCc1ccc(-c2ccccc2)cc1 | 1.2 | 43 | 50 | – | –
40 | CCCC[C@H]1CN(CCCC[C@@H]2CNC(=N)N2CCC23CC4CC(CC(C4)C2)C3)C(=N)N1CCc1ccc(-c2ccccc2)cc1 | 3.8 | 6 | 21 | – | –
41 | N=C1N[C@@H](CC2CCCCC2)CN1CCCC[C@H]1CNC(=N)N1CCCCC1CCCCC1 | 1.8 | 16 | 27 | – | –
42 | CCCC[C@H]1CN(CCCC[C@@H]2CNC(=N)N2CCc2cccc(C(F)(F)F)c2)C(=N)N1CCCCC1CCCCC1 | 0.6 | 79 | 50 | – | –
43 | CCCCCCCN1C(=N)N(CCCC[C@H]2CNC(=N)N2)C[C@@H]1CC1CCCCC1 | 2.5 | 20 | 50 | – | –
44 | N=C1NC[C@H](CCCCN2CCN(CCc3ccc(-c4ccccc4)cc3)C2=N)N1 | 4.9 | 10 | 50 | – | –
45 | CC1CCC(CCN2C(=N)NC[C@@H]2CCCCN2CCNC2=N)CC1 (some centres not stated) | 0.6 | 28 | 17 | – | –
